The values that follow come from patent US20030125387A1 (priority 2000, published 2003).

A short description of data set [1]: Studies using 14C labelled benzyl alcohol: dissipation from injection site and removal from body. The data set is classed as in vivo.
Data set [2] relates to uterotrophic action of oestradiol. As to conditions: mice; cited from earlier work.
In the next data set the test system is hypothalamic ER. The conditions noted are these: in vivo; cited from earlier work.
The next data set relates to uterus. As to conditions: intact adult rats, cited from earlier work.
A short description of data set [3]: Solubility of fulvestrant in different solvents at 25° C. (Table 2). The data set is classed as physicochemical.
For data set [4], the system named is uterotrophic action of oestradiol. As to conditions: rats; cited from earlier work.
The nature of data set [5]: Solubility of fulvestrant in oil based formulations with and without alcohols (Table 4). In kind it is physicochemical. The conditions noted are these: 25 °C, oil or lipid.
The test system of data set [6] is uterotrophic action of oestradiol. The conditions noted are these: monkeys; cited from earlier work.
Data set [7] can be described thus: Effect of benzyl benzoate on fulvestrant solubility in castor oil at 25°C (Table 3). In kind it is physicochemical.
The conditions of data set [8]: in vivo; cited from earlier work.
Data set [9] is described as follows: Aqueous solubility of fulvestrant, estimate from a water/solvent mixture. The conditions noted are these: estimate from a water/solvent mixture solute. In kind it is physicochemical.
Data set [10] concerns human breast cancer cells. As to conditions: human breast cancer cells in vitro; cited from earlier work.

Each structure is given as a SMILES string. Converted amounts (≈) assume the structure as drawn. Where two headings read alike, the source gives them in different places.

On to `OCc1ccccc1` [benzyl alcohol], for which, in data set [1], the “dissipation from the injection site” value is recorded as “dissipates rapidly” and the “time to removal from the body after administration” value was no more than 24 h.

Regarding `C[C@]12CC[C@@H]3c4ccc(O)cc4C[C@@H](CCCCCCCCC[S+]([O-])CCCC(F)(F)C(F)(F)F)[C@H]3[C@@H]1CC[C@@H]2O` (stereo partly drawn) [fulvestrant, 7α-[9-(4,4,5,5,5-Pentafluoropentylsulphinyl)nonyl]oestra-1,3-5(10)-triene-3,17β-diol], the “block of uterotrophic action of oestradiol” value in [2], in data set [4] and in [6] was “blocks completely” each time. In addition, the “block of hypothalamic ER” value in the data set with hypothalamic ER is recorded as “does not block”. Besides, in the data set with uterus (at the dose achieving maximum regression of the uterus), the “effect on bone density and gonadotrophin secretion” value is recorded as “does not adversely affect bone density or lead to increased gonadotrophin secretion”. Moreover, the “regression of the uterus” value in the data set with uterus was “maximum regression of the uterus”. Further, the solubility is 0.45 mgml^−1 in [3] (solvent Arachis oil, 25° C.); greater than 200 mgml^−1 in data set [3] (solvent Benzyl Alcohol, 25° C.); 6.15 mgml^−1 in [3] (solvent Benzyl benzoate, 25° C.); 20 mgml^−1 in data set [3] (solvent Castor oil, 25° C.); greater than 200 mgml^−1 in data set [3] (solvent Ethanol, 25° C.); 1.25 mgml^−1 in data set [3] (solvent Ethyl oleate, 25° C.). Also, the solubility in data set [3] (solvent Isopropyl myristate, 25° C.) came to 0.80 mgml^−1; in data set [3] (solvent Miglyol 810, 25° C.), 3.06 mgml^−1; in data set [3] (solvent Miglyol 812, 25° C.) it was 2.72 mgml^−1; in data set [3] (solvent Sesame oil, 25° C.), 0.58 mgml^−1; in [3] (solvent Span 85 (surfactant), 25° C.), 3.79 mgml^−1; in data set [3] (solvent Water, 25° C., read-out: SOLUBILITY), 0.001 mg/mL (≈ 0.00165 mM). Further, the solubility in data set [5] was 70.1 mg/mL (≈ 116 mM); in [5] (Fulvestrant Solubility, Vehicle minus alcohols, Sesame seed oil based, alcohols removed), 0.7 mg/mL (≈ 1.15 mM); in data set [5] (Fulvestrant Solubility, Vehicle minus alcohols, Sesame seed/Castor oil (1:1) based, alcohols removed, 25° C.), 4.4 mg/mL (≈ 7.25 mM); in data set [5] (Arachis oil based oil formulation, complete vehicle, Fulvestrant Solubility, Arachis oil based, ethanol [96%] (10%), benzyl alcohol (10%), benzyl benzoate (15%), oil to volume), 40.2 mg/mL (≈ 66.3 mM); in [5] (Arachis oil based oil formulation, vehicle minus alcohols, Fulvestrant Solubility, Arachis oil based, alcohols removed), less than 0.2 mg/mL; in data set [5] (Castor oil based oil formulation, complete vehicle, Fulvestrant Solubility, Castor oil based, ethanol [96%] (10%), benzyl alcohol (10%), benzyl benzoate (15%), oil to volume), 81.2 mg/mL (≈ 134 mM). The solubility in data set [5] (Castor oil based oil formulation, vehicle minus alcohols, Fulvestrant Solubility, Castor oil based, alcohols removed) worked out at 12.6 mg/mL (≈ 20.8 mM); in [5] (Miglyol 812-N based oil formulation, complete vehicle, Fulvestrant Solubility, Miglyol 812-N based, ethanol [96%] (10%), benzyl alcohol (10%), benzyl benzoate (15%), oil to volume), 86.8 mg/mL (≈ 143 mM); in data set [5] (Miglyol 812-N based oil formulation, vehicle minus alcohols, Fulvestrant Solubility, Miglyol 812-N based, alcohols removed) it was 1.7 mg/mL (≈ 2.8 mM); in [5] (Sesame seed oil based oil formulation, complete vehicle, Fulvestrant Solubility, Sesame seed oil based, ethanol [96%] (10%), benzyl alcohol (10%), benzyl benzoate (15%), oil to volume), 45.7 mg/mL (≈ 75.3 mM). Further, the “Fulvestrant Solubility” value in data set [7] (% w/v: ethanol (96%) 5, benzyl alcohol 5, benzyl benzoate 15, castor oil to 100) is on record as 36 mgml^−1; in [7] (% w/v: ethanol (96%) 5, benzyl alcohol 5, no benzyl benzoate, castor oil to 100), 27 mgml^−1; in [7] (% w/v: ethanol (96%) 10, benzyl alcohol 5, benzyl benzoate 15, castor oil to 100) it was 54 mgml^−1; in data set [7] (% w/v: ethanol (96%) 10, benzyl alcohol 5, no benzyl benzoate, castor oil to 100), 46 mgml^−1; in data set [7] (% w/v: ethanol (96%) 10, benzyl alcohol 10, benzyl benzoate 15, castor oil to 100) it was 65 mgml^−1; in data set [7] (% w/v: ethanol (96%) 10, benzyl alcohol 10, no benzyl benzoate, castor oil to 100), 45 mgml^−1. Moreover, the “Fulvestrant Solubility” value in [7] (% w/v: ethanol (96%) 15, benzyl alcohol 15, benzyl benzoate 15, castor oil to 100) worked out at 102 mgml^−1; in data set [7] (% w/v: ethanol (96%) 15, benzyl alcohol 15, no benzyl benzoate, castor oil to 100), 76 mgml^−1. In addition, the “crossing of the blood-brain barrier” value in data set [8] was “does not cross the blood-brain barrier”. In data set [9], the aqueous solubility entry is “around 10 ngml^−1”. In data set [10], the “block of growth stimulatory action of oestradiol” value was “completely blocks”. Also, in data set [10], the “potency and effectiveness compared with tamoxifen” value is “more potent and more effective than tamoxifen”.
